From patent publication US9708274B2, “Sulfoximine substituted quinazolines for pharmaceutical compositions” (EVOTEC INTERNATIONAL GMBH, priority 2013, dated 2017)
Blank lines part the entries; values can stand above or below the compound they belong to.

What was measured:
[1] = test system: cell culture cells, transfected with MNK2 (MNK2a or MNK2b) or MNK1; conditions: addition to cell culture cells transfected with MNK2 (MNK2a or MNK2b) or MNK1; cited from earlier work
MNK2a = MNK2a (Homo sapiens (Human), UniProt Q9HBH9); assay: MNK2a in vitro kinase assay (Assay 2), ADP-Glo; assay type: biochemical; conditions: read-out: MNK2 IC50
Method: The white, 384-well OptiPlate F plates were purchased from PerkinElmer. The ADP-Glo Kinase Assay (including ultra pure ATP) was purchased from Promega (V9103). Activated MNK2a was obtained as described in WO2011/104340. […] All other materials were of highest grade commercially available. Compounds are tested in either serial dilutions or single dose concentrations. The compound stock solutions are 10 mM in 100% DMSO The serial compound dilutions are prepared in 100% DMSO followed by 1:27.3 intermediate dilution in assay buffer. The final DMSO concentration in assay will be <3%.
In the 384-well plates 3 μl of test compound from the intermediate dilution is mixed with 4 μl of the activated MNK2 enzyme (final concentration of 10 nM) and 4 μl of the peptide (final concentration of 25 μM)/ultra pure ATP (final concentration of 20 μM), all dissolved in assay buffer. This step is followed by an incubation time of 90 min, then 10 μl of ADP Glo reagent are added, followed by 40 min of incubation. Then 20 μl of kinase detection reagent are admixed. The plates are sealed and after an incubation period of 30 min, the luminescence signal is measured in an Envision reader to determine the amount of produced ADP. All incubation steps are performed at room temperature. […]
IC50 values based on dose response curves are calculated with the AssayExplorer software.

MNK1a = MNK1a (Homo sapiens (Human), UniProt Q9BUB5); assay: MNK1 in vitro kinase assay (Assay 3), Z'-LYTE; assay type: biochemical; conditions: compound concentration of 1 μM
Source text: C. MNK1 In Vitro Kinase Assay (Assay 3)
MNK1 Data can be obtained from the MNK1 Z′-LYTE® assay. The MNK1 Z′-LYTE® screening protocol and assay conditions are also described on www.invitrogen.com.
The assay is described as follows:
The Z′-LYTE® biochemical assay employs a fluorescence-based, coupled-enzyme format and is based on the differential sensitivity of phosphorylated and non-phosphorylated peptides to proteolytic cleavage. The peptide substrate is labeled with two fluorophores—one at each end—that make up a FRET pair.
In the primary reaction, the kinase transfers the gamma-phosphate of ATP to a single tyrosine, serine or threonine residue in a synthetic FRET-peptide. In the secondary reaction, a site-specific protease recognizes and cleaves non-phosphorylated FRET-peptides. Phosphorylation of FRET-peptides suppresses cleavage by the Development Reagent. […] A ratiometric method, which calculates the ratio (the Emission Ratio) of donor emission to acceptor emission after excitation of the donor fluorophore at 400 nm, is used to quantitate reaction progress, as shown in the equation below.
ASSAY SETUP: The inhibition of kinase activity of MNK1a was assessed using pre-activated GST-MNK1a. […]
9. Read on fluorescence plate reader and analyze the data […]

Chain of MNK1a (Q9BUB5 other isoform, or with tags, fused parts or gaps): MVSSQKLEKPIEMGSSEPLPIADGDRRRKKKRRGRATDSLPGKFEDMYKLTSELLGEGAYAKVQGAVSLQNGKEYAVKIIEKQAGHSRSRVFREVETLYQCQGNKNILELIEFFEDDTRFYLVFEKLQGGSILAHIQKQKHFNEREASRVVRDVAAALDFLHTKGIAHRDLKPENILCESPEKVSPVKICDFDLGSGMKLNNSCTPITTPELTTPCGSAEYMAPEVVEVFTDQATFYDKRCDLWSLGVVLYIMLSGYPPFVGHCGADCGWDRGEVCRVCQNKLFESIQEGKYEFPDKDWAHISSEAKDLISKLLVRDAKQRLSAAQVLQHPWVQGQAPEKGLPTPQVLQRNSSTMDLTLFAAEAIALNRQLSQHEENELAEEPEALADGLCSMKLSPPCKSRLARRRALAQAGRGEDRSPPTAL
Chain of MNK2a (Q9HBH9 whole entry): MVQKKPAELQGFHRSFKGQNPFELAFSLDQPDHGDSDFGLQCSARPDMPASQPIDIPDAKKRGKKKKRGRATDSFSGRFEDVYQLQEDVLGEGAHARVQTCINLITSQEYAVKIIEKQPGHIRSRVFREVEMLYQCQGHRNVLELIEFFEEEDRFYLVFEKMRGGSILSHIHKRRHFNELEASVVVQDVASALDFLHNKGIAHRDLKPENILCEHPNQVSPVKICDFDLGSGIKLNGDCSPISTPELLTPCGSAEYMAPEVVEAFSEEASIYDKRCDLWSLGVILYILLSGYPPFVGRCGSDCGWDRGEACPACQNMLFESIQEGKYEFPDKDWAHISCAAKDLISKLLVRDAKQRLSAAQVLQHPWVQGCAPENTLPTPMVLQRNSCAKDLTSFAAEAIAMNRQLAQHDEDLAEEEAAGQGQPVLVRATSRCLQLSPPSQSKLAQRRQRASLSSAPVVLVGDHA

Structure (SMILES): Nc1ncnc2n[nH]c(Nc3ccc(F)cc3)c12 [CGP57380]
reduction of phosphorylated eIF4E [1]: strong reduction of phosphorylated eIF4E

IC50 (MNK2a): 2 nM
Structure (SMILES): C[C@@H](Oc1cc(F)ccc1Nc1ncnc2cc(N=S3(=O)CCC3)cc(F)c12)C(=O)NCCC(F)(F)F [Example 4.108]

Structure (SMILES): C[C@H](NC(=O)[C@@H](C)Oc1cc(F)ccc1Nc1ncnc2cc(N=S3(=O)CCC3)cc(F)c12)C(F)(F)F [Example 4.136]
MNK1 % INH (MNK1a): 93%
